Measurements published in PubChem BioAssay (NCI).
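Interpolation was linear, between the two tested concentrations surrounding the appropriate level; five concentrations were tested over 48 hours in 96-well plates. TGI: concentration producing complete growth inhibition.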

Experiments:
Test in all cases: NCI-60 cell line screen, 48 h
[1] = tested on: RPMI-8226 leukemia
[2] = tested on: SNB-19 CNS
[3] = tested on: K-562 leukemia
[4] = tested on: HS 578T breast
[5] = tested on: SK-OV-3 ovarian
[6] = tested on: NCI-H23 lung
[7] = tested on: IGROV1 ovarian
[8] = tested on: SK-MEL-28 melanoma
[9] = tested on: MDA-N
[10] = tested on: PC-3 prostate
[11] = tested on: NCI-H460 lung
[12] = tested on: MALME-3M melanoma
[13] = tested on: RXF 393 renal
[14] = tested on: OVCAR-4 ovarian
[15] = tested on: MDA-MB-231 breast
[16] = tested on: CAKI-1 renal
[17] = tested on: NCI/ADR-RES ovarian
[18] = tested on: SF-295 CNS
[19] = tested on: LOX IMVI melanoma
[20] = tested on: HL-60(TB) leukemia
[21] = tested on: NCI-H226 lung
[22] = tested on: NCI-H522 lung
[23] = tested on: MCF7 breast
[24] = tested on: MDA-MB-435
[25] = tested on: SN12C renal
[26] = tested on: HCT-15 colon
[27] = tested on: UACC-257 melanoma
[28] = tested on: HT29 colon
[29] = tested on: SNB-75 CNS
[30] = tested on: HCC-2998 colon
[31] = tested on: SR leukemia
[32] = tested on: UO-31 renal
[33] = tested on: OVCAR-8 ovarian
[34] = tested on: 786-0 renal
[35] = tested on: T-47D breast
[36] = tested on: SF-268 CNS
[37] = tested on: KM12 colon
[38] = tested on: BT-549 breast
[39] = tested on: SF-539 CNS
[40] = tested on: U251 CNS
[41] = tested on: CCRF-CEM leukemia
[42] = tested on: HOP-92 NSCLC
[43] = tested on: MOLT-4 leukemia
[44] = tested on: SK-MEL-5 melanoma
[45] = tested on: OVCAR-3 ovarian
[46] = tested on: M14 melanoma
[47] = tested on: EKVX NSCLC
[48] = tested on: UACC-62 melanoma
[49] = tested on: DU-145 prostate
[50] = tested on: A498 renal
[51] = tested on: A549 NSCLC
[52] = tested on: HCT-116 colon
[53] = tested on: HOP-62 NSCLC
[54] = tested on: ACHN renal
[55] = tested on: COLO 205 colon
[56] = tested on: SW-620 colon
[57] = tested on: TK-10 renal
[58] = tested on: OVCAR-5 ovarian
[59] = tested on: SK-MEL-2 melanoma

CCCCN(C(=O)c1ccccc1)C1CCC(=O)c2[nH]c3ccccc3c21 (centres undefined)
TGI [1]: 68.8 µM
TGI [2]: > 100 µM
TGI [3]: > 100 µM
TGI [4]: 51.2 µM
TGI [5]: > 100 µM
TGI [6]: > 100 µM
TGI [7]: > 100 µM
TGI [8]: > 100 µM
TGI [9]: > 100 µM
TGI [10]: > 100 µM
TGI [11]: > 100 µM
TGI [12]: > 100 µM
TGI [13]: 70 µM
TGI [14]: > 100 µM
TGI [15]: > 100 µM
TGI [16]: 84 µM
TGI [17]: > 100 µM
TGI [18]: > 100 µM
TGI [19]: > 100 µM
TGI [20]: 29.6 µM
TGI [21]: 93.4 µM
TGI [22]: > 100 µM
TGI [23]: > 100 µM
TGI [24]: > 100 µM
TGI [25]: > 100 µM
TGI [26]: > 100 µM
TGI [27]: > 100 µM
TGI [28]: > 100 µM
TGI [29]: 75.2 µM
TGI [30]: > 100 µM
TGI [31]: 41.4 µM
TGI [32]: > 100 µM
TGI [33]: > 100 µM
TGI [34]: > 100 µM
TGI [35]: 89.9 µM
TGI [36]: > 100 µM
TGI [37]: > 100 µM
TGI [38]: > 100 µM
TGI [39]: > 100 µM
TGI [40]: > 100 µM
TGI [41]: > 100 µM
TGI [42]: 84.5 µM
TGI [43]: > 100 µM
TGI [44]: 49.9 µM
TGI [45]: > 100 µM
TGI [46]: > 100 µM
TGI [47]: > 100 µM
TGI [48]: > 100 µM
TGI [49]: > 100 µM
TGI [50]: > 100 µM
TGI [51]: > 100 µM
TGI [52]: > 100 µM
TGI [53]: > 100 µM
TGI [54]: > 100 µM
TGI [55]: 48.1 µM
TGI [56]: > 100 µM
TGI [57]: > 100 µM

N#CC(NCCc1ccccc1)c1ccccc1 (centres undefined)
TGI [1]: > 100 µM
TGI [2]: > 100 µM
TGI [4]: > 100 µM
TGI [5]: > 100 µM
TGI [6]: > 100 µM
TGI [7]: > 100 µM
TGI [8]: > 100 µM
TGI [9]: > 100 µM
TGI [10]: > 100 µM
TGI [11]: > 100 µM
TGI [12]: > 100 µM
TGI [13]: > 100 µM
TGI [14]: > 100 µM
TGI [15]: > 100 µM
TGI [16]: > 100 µM
TGI [17]: > 100 µM
TGI [18]: > 100 µM
TGI [19]: > 100 µM
TGI [20]: > 100 µM
TGI [21]: > 100 µM
TGI [22]: > 100 µM
TGI [23]: > 100 µM
TGI [24]: > 100 µM
TGI [25]: > 100 µM
TGI [26]: > 100 µM
TGI [27]: > 100 µM
TGI [28]: > 100 µM
TGI [29]: > 100 µM
TGI [30]: > 100 µM
TGI [31]: > 100 µM
TGI [32]: > 100 µM
TGI [33]: > 100 µM
TGI [34]: > 100 µM
TGI [35]: > 100 µM
TGI [36]: > 100 µM
TGI [37]: > 100 µM
TGI [58]: > 100 µM
TGI [38]: > 100 µM
TGI [39]: > 100 µM
TGI [40]: > 100 µM
TGI [41]: > 100 µM
TGI [59]: > 100 µM
TGI [42]: > 100 µM
TGI [43]: > 100 µM
TGI [44]: > 100 µM
TGI [45]: > 100 µM
TGI [46]: > 100 µM
TGI [47]: > 100 µM
TGI [48]: > 100 µM
TGI [49]: > 100 µM
TGI [51]: > 100 µM
TGI [52]: > 100 µM
TGI [53]: > 100 µM
TGI [54]: > 100 µM
TGI [55]: > 100 µM
TGI [56]: > 100 µM
TGI [57]: > 100 µM
